Laboratory results published in patent US7238795B2, “Nucleic acid binding compounds containing pyrazolo[3,4-d]pyrimidine analogues of purin-2,6-diamine and their uses” (Roche Molecular Systems, Inc., priority 2000, dated 2007).
Several values for one entry are separate records, joined by “and”; a condition that tells them apart may be missing. Equal values may be shown once. Read-outs that look alike come from different tables or passages of the source.

What was measured:
[1] = Half-life of the N-glycosylic bond in HCl, followed UV-spectrophotometrically and by HPLC; format: physicochemical; details: 25°; for half-life: read-out: Half-life τ
Experimental: Next, the half-lives of the N-glycosylic bonds of compounds 2a,b in acidic medium were measured and compared with that of compound 1. […]

[2] = test system: complementary oligodeoxyribonucleotide strand (antiparallel duplex); assay: Tm values and thermodynamic data of antiparallel DNA-DNA duplexes (UV melting curves, Meltwin 3.0); format: binding
[3] = molecular target: T1, adenosine deaminase (ADA) (Homo sapiens, UniProt P00813); assay: Deamination by adenosine deaminase, followed UV-spectrophotometrically; format: biochemical; details: compared with purine nucleoside 1; even at high enzyme concentrations
T1 sequence (P00813 1-363): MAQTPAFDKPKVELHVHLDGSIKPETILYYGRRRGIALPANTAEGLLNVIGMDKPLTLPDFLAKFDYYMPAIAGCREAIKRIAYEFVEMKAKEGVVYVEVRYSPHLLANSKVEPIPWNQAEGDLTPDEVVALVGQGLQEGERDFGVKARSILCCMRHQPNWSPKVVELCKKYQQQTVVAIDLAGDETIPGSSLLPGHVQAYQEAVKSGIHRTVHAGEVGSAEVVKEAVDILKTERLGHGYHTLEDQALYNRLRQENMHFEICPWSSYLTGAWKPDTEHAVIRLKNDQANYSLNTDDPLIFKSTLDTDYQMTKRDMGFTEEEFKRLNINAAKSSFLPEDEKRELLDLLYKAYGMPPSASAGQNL
Source text: The reaction was followed UV-spectrophoto-metrically (FIG. 1a).
The time-dependent spectra show two isosbestic points (λ=234 nm and 267 nm) indicating the conversion of the starting material into only one reaction product. The deamination of 2a occurs much slower than that of the purine nucleoside 1.

[4] = Deprotection (alkaline hydrolysis) of base-protected nucleosides in aqueous ammonia, HPLC monitoring; details: for time of complete deprotection: conc. ammonia, 40°
[5] = buffer
[6] = test system: complementary oligodeoxyribonucleotide strand (antiparallel duplex); details: data published so far; n^2Ad instead of dA; cited from earlier work
[7] = 25% aq. NH3, 40°, HPLC-monitoring

## Nc1nc(N)c2c(Br)nn([C@H]3C[C@H](O)[C@@H](CO)O3)c2n1 [2b, 3-Bromo-1-[2-deoxy-β-D-erythro-pentofuranosyl]-1H-pyrazolo[3,4-d]-pyrimidin-4,6-diamine]
[1]; 0.5 N HCl, Stable = within 4 h
  Half-life τ: Stable^b)
[1]; 2 N HCl
  half-life: 87 min
[2]; text Example 2, standard duplex 102•103
  Tm increase (stabilization) per modified residue: 4.5 ° and 4-5 °
[2]; text b259
  Tm-value of duplex 102•103 with six residues replacing dA: 75 °
[3]
  deamination by adenosine deaminase: not deaminated

## Nc1nc(N)c2c(I)nn([C@H]3C[C@H](O)[C@@H](CO)O3)c2n1 [2c, 1-(2-Deoxy-β-D-erythro-pentofuranosyl)-3-iodo-1H-pyrazolo[3,4-d]-pyrimidin-4,6-diamine]
[1]; Table 8, 0.5 N HCl, stable = within 3 h
  Half-life τ: stable^b)
[1]; Table 8, 2 N HCl
  half-life: 61 min

## O=C(COc1ccccc1)Nc1nc(NC(=O)COc2ccccc2)c2cnn([C@H]3C[C@H](O)[C@@H](CO)O3)c2n1 [5a, N^4,N^6-Bis(phenoxyacetyl)-1-[2-deoxy-β-D-erythro-pentofuranosyl]-1H-pyrazolo[3,4-d]-pyrimidin-4,6-diamine]
[4]; [7]
  removal of the first pac-group: ≤ 5 min
  removal of the second pac-group: 20 min
[4]; 25% aq. NH3 at r.t.
  complete deprotection: less than one hour

## O=C(Nc1nc(NC(=O)c2ccccc2)c2cnn([C@H]3C[C@H](O)[C@@H](CO)O3)c2n1)c1ccccc1 [5b, N^4,N^6-Bis(benzoyl)-1-[2-deoxy-β-D-erythro-pentofuranosyl]-1H-pyrazolo[3,4-d]-pyrimidin-4,6-diamine]
[4]; 25% aq. NH3, 40°, HPLC monitoring
  complete removal of the two benzoyl groups: 8 to 9 h

## CCCCN(C=Nc1nc(N=CN(CCCC)CCCC)c2cnn([C@H]3C[C@H](O)[C@@H](CO)O3)c2n1)CCCC [8a, N^4,N^6-Bis((di-n-butylamino)methylene)-1-[2-deoxy-β-D-erythro-pentofuranosyl]-1H-pyrazolo[3,4-d]-pyrimidin-4,6-diamine]
[4]; HPLC-monitoring at 260 nm
  time of complete deprotection: 440 min

## CCCCN(C=Nc1nc(N=CN(CCCC)CCCC)c2c(Br)nn([C@H]3C[C@H](O)[C@@H](CO)O3)c2n1)CCCC [8b, N^4,N^6-Bis((di-n-butylamino)methylene)-3-bromo-1-[2-deoxy-β-D-erythro-pentofuranosyl]-1H-pyrazolo[3,4-d]-pyrimidin-4,6-diamine]
[4]; HPLC-monitoring at 260 nm
  time of complete deprotection: 450 min

## CC(C)C(=O)Nc1nc(NC(=O)C(C)C)c2c(Br)nn([C@H]3C[C@H](O)[C@@H](CO)O3)c2n1 [13a, 3-Bromo-1-(2-deoxy-β-D-erythro-pentofuranosyl)-4,6-[(2-methylpropanoyl)amino]-1H-pyrazolo[3,4-d]pyrimidine]
[5]
  half-life of alkaline hydrolysis: 4.5 min

## O=C(Nc1nc(NC(=O)c2ccccc2)c2c(I)nn([C@H]3C[C@H](O)[C@@H](CO)O3)c2n1)c1ccccc1 [13b, 1-[2-Deoxy-β-D-erythro-pentofuranosyl]-4,6-dibenzamido-3-iodo-1H-pyrazolo[3,4-d]-pyrimidine]
[4]; 25% aq. NH3, 40° C., HPLC-monitoring at 260 nm
  time for complete deprotection: 450 min

## Nc1nc(N)c2ncn([C@H]3C[C@H](O)[C@@H](CO)O3)c2n1 [compound 1, 2-amino-2′-deoxyadenosine, reference compound]
[1]; 0.5 N HCl, Stable = within 4 h
  half-life: 6 min
[6]
  Tm-increase of DNA duplex: 1-2 °C

## CC(C)C(=O)Nc1nc(N)c2c(Br)nn([C@H]3C[C@H](O)[C@@H](CO)O3)c2n1 [compound 14, 4-Amino-3-bromo-1-(2-deoxy-β-D-erythro-pentofuranosyl)-6-[(2-methylpropanoyl)amino]-1H-pyrazolo[3,4-d]pyrimidine]
[4]; 25% aq. NH3 at 40°
  half-life of alkaline hydrolysis: 20.5 min
